Laboratory results as given in publication PMC8301926 (Biomolecules, 2021).
Several values for one entry are separate records, joined by “and”; a condition that tells them apart may be missing. Identical values can stand only once. Like-named read-outs stand apart in the source and are kept apart here. Each block holds one molecule with its values, some of them ahead of it.

Experiments:
[1] = biological target: T1, human M4 muscarinic acetylcholine receptor (hM4R) (Homo sapiens, UniProt P08173); test: M4 (h) functional GPCR assay, antagonist effect, cAMP HTRF; assay type: cell-based; details: CHO cells, cAMP; read-out: Reference IC50, M4 reference antagonist
T1 construct: host or cells: CHO cells
T1 sequence (P08173 1-479): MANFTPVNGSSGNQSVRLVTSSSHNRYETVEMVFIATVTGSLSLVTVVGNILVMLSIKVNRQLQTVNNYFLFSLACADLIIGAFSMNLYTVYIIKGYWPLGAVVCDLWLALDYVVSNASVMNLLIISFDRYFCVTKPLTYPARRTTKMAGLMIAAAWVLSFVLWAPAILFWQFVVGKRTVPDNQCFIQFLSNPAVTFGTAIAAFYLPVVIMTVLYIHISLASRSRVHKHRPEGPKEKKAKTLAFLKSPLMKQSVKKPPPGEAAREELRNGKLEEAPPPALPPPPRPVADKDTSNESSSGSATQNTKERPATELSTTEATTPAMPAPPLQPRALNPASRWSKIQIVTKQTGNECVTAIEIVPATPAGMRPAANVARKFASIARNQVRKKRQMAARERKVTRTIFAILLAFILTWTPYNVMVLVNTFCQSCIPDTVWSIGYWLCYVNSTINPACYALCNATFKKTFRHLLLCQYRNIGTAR
Procedure: The cellular and nuclear receptor functional assays were carried out at Eurofins Cerep (Le Bois I’ Eveque, France) following the in-house protocols (catalog items G029-1262, G029-1474, G030-1658, G030-1659, G031-1243, G031-1244, G032-1670, G032-1671, G033-4217, and G033-4212). The experimental methods for the assays were as described in the previous reports and the general methodology is summarized in the Supplementary Information Table S1. Recombinant human Chinese hamster ovary (CHO) cells and rat basophilic leukemic (RBL) cells were transfected with the GPCR genes of interest (hM1R, hM2R, hM3R, hM4R, and hM5R). The functional assay provided the readouts based on the measurements of calcium ion mobilization (for the Gαq/11-coupled receptors) and cAMP level (for the Gαi/o-coupled receptors).
Stable CHO cells expressing the transfected cDNA of human M2 receptors were suspended in a medium containing HBSS buffer complemented with 20-mM HEPES buffer (pH 7.4) and 500-µM IBMX, whereas the stable human M4 receptor cloned CHO cells were distributed in HBSS buffer with 20-mM HEPES/NaOH (pH 7.4), 70-mM NaCl, 5.33-mM KCl, 1.25-mM CaCl2, 0.5-mM MgCl2, 0.41-mM MgSO4, 0.441-mM KH2PO4, 0.3-mM Na2HPO4, 0.1% glucose, and 500-µM IBMX. […] The cAMP level was calculated as the ratio of the signal measured at 665 nm to that measured at 620 nm. […]
Assay Source Stimulus Incubation Measured Detection References […]

[2] = test system: recombinant human MAO-A (hMAO-A); design: method as in earlier work; details: ref 27 (Dittman et al., 2004); read-out: IC50, recombinant human MAO-A (literature); cited from earlier work
[3] = biological target: T2, recombinant human monoamine oxidase B (hMAO-B) (Homo sapiens, UniProt P27338); test: hMAO-B enzyme kinetics (Lineweaver-Burk, Dixon, secondary plots); assay type: biochemical; details: for Inhibition Type, hMAO-B: Lineweaver-Burk and Dixon plots; for Ki: from secondary plots
T2 sequence (P27338 1-520): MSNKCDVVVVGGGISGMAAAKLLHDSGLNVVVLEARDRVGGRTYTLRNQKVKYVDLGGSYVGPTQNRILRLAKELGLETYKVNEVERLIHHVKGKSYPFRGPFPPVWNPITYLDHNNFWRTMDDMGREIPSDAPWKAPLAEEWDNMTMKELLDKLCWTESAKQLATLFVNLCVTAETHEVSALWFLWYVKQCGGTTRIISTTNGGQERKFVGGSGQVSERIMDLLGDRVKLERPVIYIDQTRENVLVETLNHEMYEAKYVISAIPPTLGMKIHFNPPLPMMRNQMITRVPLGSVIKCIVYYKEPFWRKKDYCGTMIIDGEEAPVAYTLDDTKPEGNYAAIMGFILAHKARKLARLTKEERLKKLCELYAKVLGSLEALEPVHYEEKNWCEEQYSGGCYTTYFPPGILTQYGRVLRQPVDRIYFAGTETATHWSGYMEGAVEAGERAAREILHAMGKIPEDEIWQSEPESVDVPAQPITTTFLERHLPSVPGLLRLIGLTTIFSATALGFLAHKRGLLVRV

[4] = biological target: T3, recombinant human monoamine oxidase A (hMAO-A) (Homo sapiens, UniProt P21397); test: hMAO-A enzyme kinetics (Lineweaver-Burk, Dixon, secondary plots); assay type: biochemical; details: for Inhibition Type, hMAO-A: Lineweaver-Burk and Dixon plots; for Ki: from secondary plots
T3 sequence (P21397 1-527): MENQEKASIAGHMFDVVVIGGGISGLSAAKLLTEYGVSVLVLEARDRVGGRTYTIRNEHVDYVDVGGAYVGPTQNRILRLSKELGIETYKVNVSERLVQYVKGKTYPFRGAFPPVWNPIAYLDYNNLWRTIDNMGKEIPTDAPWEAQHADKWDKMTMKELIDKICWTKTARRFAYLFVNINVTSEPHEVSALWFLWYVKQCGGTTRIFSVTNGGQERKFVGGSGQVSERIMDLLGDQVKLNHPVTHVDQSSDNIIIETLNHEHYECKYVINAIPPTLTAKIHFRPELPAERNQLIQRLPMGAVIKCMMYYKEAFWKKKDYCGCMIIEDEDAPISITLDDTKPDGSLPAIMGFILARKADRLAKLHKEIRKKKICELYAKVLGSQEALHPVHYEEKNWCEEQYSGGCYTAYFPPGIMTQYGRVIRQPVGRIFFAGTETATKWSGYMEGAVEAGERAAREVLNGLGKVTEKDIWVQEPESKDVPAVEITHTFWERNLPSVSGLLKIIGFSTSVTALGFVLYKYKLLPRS

[5] = biological target: T3, recombinant human monoamine oxidase A (hMAO-A); test: hMAO-A inhibition, MAO-Glo chemiluminescent assay; assay type: biochemical; details: for IC50: mean ± SD of triplicate experiments; for SI (selectivity index): ratio of the IC50 value for hMAO-A inhibition to that for hMAO-B inhibition
[6] = biological target: T2, recombinant human monoamine oxidase B (hMAO-B); test: hMAO-B inhibition, MAO-Glo chemiluminescent assay; assay type: biochemical; details: mean ± SD of triplicate experiments

IC50 [1]: 36 nM
SMILES: CCOC(=O)c1c(C)[nH]c2ccc3c(c12)CN1CCc2cc(OC)ccc2C1O3 (stereo not shown) [PD 102807, reference compound]

SMILES: Cc1cccc2c3c(ccc12)C1=C(C(=O)C3=O)[C@@H](C)CO1 [Dtan I, dihydrotanshinone I, reference compound]
IC50 [2]: 23 µM

Inhibition Type, hMAO-B [3]: Non-competitive
Inhibition Type, hMAO-B ([3]; listed as 2): noncompetitive inhibition
Ki ([3]; read-out: Kic, hMAO-B): 12.9 ± 1.14 µM
Ki ([3]; read-out: Kiu, hMAO-B): 13.7 ± 0.58 µM
Inhibition Type, hMAO-A [4]: Mixed
Inhibition Type, hMAO-A ([4]; listed as 2): mixed-mode
Ki ([4]; read-out: Kic, hMAO-A): 0.72 ± 0.13 µM
Ki ([4]; read-out: Kiu, hMAO-A): 2.74 ± 0.37 µM
IC50 ([5]; read-out: IC50, hMAO-A): < 10 µM and 6.08 µM
SI (selectivity index) [5]: 0.35
IC50 [6]: < 25 µM and 17.5 µM
SMILES: Cc1coc2c1C(=O)C(=O)c1c-2ccc2c1CCCC2(C)C [Tanshinone IIA]
IC50 [2]: > 400 µM

SMILES: C[C@H]1COC2=C1C(=O)C(=O)c1c2ccc2c1CCCC2(C)C [Cryptotanshinone]
IC50 [2]: 84 µM
Ki ([3]; Kic, hMAO-B): 9.33 ± 0.1 µM
Inhibition Type, hMAO-B [3]: Competitive
Inhibition Type, hMAO-B ([3]; listed as 3): competitive enzyme inhibition
Ki ([4]; Kic, hMAO-A): 4.99 ± 0.34 µM
Ki ([4]; Kiu, hMAO-A): 38.1 ± 1.79 µM
Inhibition Type, hMAO-A [4]: Mixed
Inhibition Type, hMAO-A ([4]; listed as 3): mixed-mode
IC50 ([5]; IC50, hMAO-A): < 10 µM and 8.7 µM
SI (selectivity index) [5]: 0.38
IC50 [6]: 23.1 ± 2.1 µM
